According to patent publication US12723063B2, “GIPR-agonist compounds” (Eli Lilly and Company, priority 2019, dated 2026):
*1 amine or outer side, *2 acyl side, *3 side chain or, on linkers, in order; H or OH if unused. Where a SMILES comes first, the peptide text is derived from it. Side-chain parts run from the residue outwards. [ ]: non-standard residue; d: D form. The star is where a group is joined. C20 diacid = O=C(O)CCCCCCCCCCCCCCCCCCC(=O)*; C18 diacid = O=C(O)CCCCCCCCCCCCCCCCC(=O)*; αMePhe(2-F) = C[C@](N)(Cc1ccccc1F)C(=O)O; γGlu = O=C(O)[C@H](CCC(=O)[*:2])N[*:1]; 4Pal = N[C@@H](Cc1ccncc1)C(=O)O; αMeL = CC(C)C[C@](C)(N)C(=O)O; Orn = NCCC[C@H](N)C(=O)O; AEEA = NCCOCCOCC(=O)O; Aib = CC(C)(N)C(=O)O

Legend:
[1] = molecular target: T1, human GLP-1R (Homo sapiens, UniProt P43220); assay: [125I]-GLP-1 binding, SPA with WGA beads, 0.1% bacitracin; details: geometric mean, read-out: hGLP1R Ki
T1 construct: expressed in transfected cells; crude membranes
T1 sequence (P43220 24-463): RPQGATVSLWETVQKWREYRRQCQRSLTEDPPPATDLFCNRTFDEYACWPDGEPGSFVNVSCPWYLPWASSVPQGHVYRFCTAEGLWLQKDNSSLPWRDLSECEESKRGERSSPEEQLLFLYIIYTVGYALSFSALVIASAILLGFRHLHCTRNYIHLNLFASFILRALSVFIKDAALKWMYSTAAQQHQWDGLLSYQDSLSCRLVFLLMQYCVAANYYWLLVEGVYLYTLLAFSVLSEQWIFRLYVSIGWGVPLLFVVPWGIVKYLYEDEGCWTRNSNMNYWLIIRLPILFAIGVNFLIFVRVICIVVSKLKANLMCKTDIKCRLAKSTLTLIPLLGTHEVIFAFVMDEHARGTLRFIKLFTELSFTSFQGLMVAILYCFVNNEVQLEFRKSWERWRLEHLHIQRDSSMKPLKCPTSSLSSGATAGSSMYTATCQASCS
Method: (§1) Stably transfected cell lines are prepared by subcloning receptor cDNA into a pcDNA3 expression plasmid and transfected into human embryonic kidney (HEK) 293 (hGcgR and hGLP-1R) or Chinese Hamster Ovary (CHO) (hGIPR) cells followed by selection with Geneticin (hGLP-1R and hGIPR) or hygromycin B (hGcgR).
(§2) Two methods are used for the preparation of crude cell membranes.
(§3) Method 1: Frozen cell pellets are lysed on ice in hypotonic buffer containing 50 mM Tris HCl, pH 7.5, and Roche Complete™ Protease Inhibitors with EDTA. The cell suspension is disrupted using a glass Potter-Elvehjem homogenizer fitted with a Teflon® pestle for 25 strokes. The homogenate is centrifuged at 4° C. at 1100× g for 10 minutes. The supernatant is collected and stored on ice while the pellets are resuspended in homogenization buffer and rehomogenized as described above. The homogenate is centrifuged at 1100× g for 10 minutes. The second supernatant is combined with the first supernatant and centrifuged at 35000× g for 1 hour at 4° C. The resulting membrane pellet is resuspended in homogenization buffer containing protease inhibitors at approximately 1 to 3 mg/mL, quick frozen in liquid nitrogen and stored as aliquots in a −80° C. freezer until use.
(§4) Method 2: Frozen cell pellets are lysed on ice in hypotonic buffer containing 50 mM Tris HCl, pH 7.5, 1 mM MgCl2, Roche Complete™ EDTA-free Protease Inhibitors and 25 units/mL DNAse I (Invitrogen). The cell suspension is disrupted using a glass Potter-Elvehjem homogenizer fitted with a Teflon® pestle for 20 to 25 strokes. The homogenate is centrifuged at 4° C. at 1800× g for 15 minutes. The supernatant is collected and stored on ice while the pellets are resuspended in homogenization buffer (without DNAse I) and rehomogenized as described above. The homogenate is centrifuged at 1800× g for 15 minutes. The second supernatant is combined with the first supernatant and centrifuged an additional time at 1800× g for 15 minutes. The overall supernatant is then centrifuged at 25000× g for 30 minutes at 4° C. The resulting membrane pellet is resuspended in homogenization buffer (without DNAse I) containing protease inhibitors at approximately 1 to 3 mg/mL and stored as aliquots in a −80° C. freezer until use.
The binding buffer contains 25 mM HEPES, pH 7.4, 2.5 mM CaCl2), 1 mM MgCl2, 0.1% (w/v) bacitracin, 0.003% (w/v) TWEEN®-20, and Roche Complete™ Protease Inhibitors without EDTA.
(§5) Data are analyzed using four-parameter (curve maximum, curve minimum, IC50, Hill slope) nonlinear regression routines (Genedata Screener, version 12.0.4, Genedata AG, Basal, Switzerland). […] Values for Ki are reported as the geometric mean, with error expressed as the standard error of the mean (SEM) and n is equal to the number of independent replicates (determined in assays performed on different days). […] SEM is only calculated when […] or greater. Means are expressed as geometric means with the standard error of the mean (SEM) and the number of replicates (n) indicated in parentheses.

[2] = molecular target: T2, human GIPR (Homo sapiens, UniProt P48546); assay: [125I]-GIP binding, SPA with WGA beads, 0.1% bacitracin; details: geometric mean, read-out: hGIPR Ki
T2 construct: expressed in transfected cells; crude membranes
T2 sequence (P48546 22-466): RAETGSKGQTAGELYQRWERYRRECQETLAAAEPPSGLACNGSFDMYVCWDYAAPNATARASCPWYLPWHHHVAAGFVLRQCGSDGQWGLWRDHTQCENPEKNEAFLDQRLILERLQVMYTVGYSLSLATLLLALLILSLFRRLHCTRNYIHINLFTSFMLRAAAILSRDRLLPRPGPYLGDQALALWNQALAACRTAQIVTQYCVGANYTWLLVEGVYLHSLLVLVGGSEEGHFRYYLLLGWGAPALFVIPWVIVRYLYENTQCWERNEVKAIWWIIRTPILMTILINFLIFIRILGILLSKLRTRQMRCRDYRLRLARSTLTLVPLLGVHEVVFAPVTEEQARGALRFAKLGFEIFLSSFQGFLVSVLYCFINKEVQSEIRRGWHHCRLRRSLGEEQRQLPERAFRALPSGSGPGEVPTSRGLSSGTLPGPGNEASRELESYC
Method: as §1, §2, §3, §4
The binding buffer contains 25 mM HEPES, pH 7.4, 2.5 mM CaCl2), 1 mM MgCl2, 0.1% (w/v) bacitracin, 0.003% (w/v) TWEEN®-20, and Roche Complete™ Protease Inhibitors without EDTA. […] Plates are sealed and mixed on a plate shaker (setting 6) for 1 minute and read with a PerkinElmer Trilux MicroBeta® scintillation counter after 2.5 to 12 hours of incubation/settling time at room temperature.
as §5

SMILES | Ki [1] [nM] | Ki [2] [nM]
CC[C@H](C)[C@H](NC(=O)[C@H](CO)NC(=O)[C@H](Cc1ccc(O)cc1)NC(=O)[C@H](CC(=O)O)NC(=O)[C@H](CO)NC(=O)[C@@H](NC(=O)[C@H](Cc1ccccc1)NC(=O)[C@@H](NC(=O)CNC(=O)[C@H](CCC(=O)O)NC(=O)[C@@H](C)NC(=O)[C@@H](N)Cc1ccc(O)cc1)[C@@H](C)O)[C@@H](C)CC)C(=O)N[C@@H](CC(C)C)C(=O)N[C@@H](CC(C)C)C(=O)N[C@@H](CC(=O)O)C(=O)N[C@@H](CCCCN)C(=O)N[C@@H](CCCCNC(=O)COCCOCCNC(=O)COCCOCCNC(=O)CC[C@H](NC(=O)CCCCCCCCCCCCCCCCC(=O)O)C(=O)O)C(=O)N[C@@H](C)C(=O)N[C@@H](CCC(N)=O)C(=O)NC(C)(C)C(=O)N[C@@H](CCC(=O)O)C(=O)N[C@@H](Cc1ccccc1)C(=O)N[C@H](C(=O)N[C@@H](CCC(N)=O)C(=O)N[C@@H](Cc1c[nH]c2ccccc12)C(=O)N[C@@H](CC(C)C)C(=O)N[C@@H](CC(C)C)C(=O)N[C@@H](C)C(=O)NCC(=O)NCC(=O)N1CCC[C@H]1C(=O)N[C@@H](CO)C(=O)N[C@@H](CO)C(=O)NCC(=O)N[C@@H](C)C(=O)N1CCC[C@H]1C(=O)N1CCC[C@H]1C(=O)N1CCC[C@H]1C(=O)N[C@@H](CO)C(N)=O)C(C)C [Example 27] (H-Y[dA]EGTFISDYSILLDKK([AEEA-AEEA-γGlu-C18 diacid])AQ[Aib]EFVQWLLAGGPSSGAPPPS-NH2) | 23.2 | 0.0354
CC[C@H](C)[C@H](NC(=O)[C@H](CO)NC(=O)[C@H](Cc1ccc(O)cc1)NC(=O)[C@H](CC(=O)O)NC(=O)[C@H](CO)NC(=O)[C@@H](NC(=O)[C@H](Cc1ccccc1)NC(=O)[C@@H](NC(=O)CNC(=O)[C@H](CCC(=O)O)NC(=O)[C@@H](C)NC(=O)[C@@H](N)Cc1ccc(O)cc1)[C@@H](C)O)[C@@H](C)CC)C(=O)N[C@@H](CC(C)C)C(=O)N[C@@H](CC(C)C)C(=O)N[C@@H](CC(=O)O)C(=O)N[C@@H](CCCCN)C(=O)N[C@@H](CCCCNC(=O)COCCOCCNC(=O)COCCOCCNC(=O)CC[C@H](NC(=O)CCCCCCCCCCCCCCCCCCC(=O)O)C(=O)O)C(=O)N[C@@H](Cc1c[nH]cn1)C(=O)N[C@@H](CCC(N)=O)C(=O)N[C@@H](CCC(N)=O)C(=O)N[C@@H](CCC(=O)O)C(=O)N[C@@H](Cc1ccccc1)C(=O)N[C@H](C(=O)N[C@@H](CC(N)=O)C(=O)N[C@@H](Cc1c[nH]c2ccccc12)C(=O)N[C@@H](CC(C)C)C(=O)N[C@@H](CC(C)C)C(=O)N[C@@H](C)C(=O)N[C@@H](CCC(N)=O)C(=O)NCC(=O)N1CCC[C@H]1C(=O)N[C@@H](CO)C(=O)N[C@@H](CO)C(=O)NCC(=O)N[C@@H](C)C(=O)N1CCC[C@H]1C(=O)N1CCC[C@H]1C(=O)N1CCC[C@H]1C(=O)N[C@@H](CO)C(N)=O)C(C)C [Example 13] (H-Y[dA]EGTFISDYSILLDKK([AEEA-AEEA-γGlu-C20 diacid])HQQEFVNWLLAQGPSSGAPPPS-NH2) | > 213 | 0.237
CC[C@H](C)[C@H](NC(=O)[C@H](CO)NC(=O)[C@H](Cc1ccc(O)cc1)NC(=O)[C@H](CC(=O)O)NC(=O)[C@H](CO)NC(=O)[C@@H](NC(=O)[C@](C)(Cc1ccccc1F)NC(=O)[C@@H](NC(=O)CNC(=O)[C@H](CCC(=O)O)NC(=O)C(C)(C)NC(=O)[C@@H](N)Cc1ccc(O)cc1)[C@@H](C)O)[C@@H](C)CC)C(=O)N[C@@H](CC(C)C)C(=O)N[C@@H](CC(C)C)C(=O)N[C@@H](CC(=O)O)C(=O)N[C@@H](CCCCN)C(=O)N[C@H](C(=O)N[C@@H](Cc1c[nH]cn1)C(=O)N[C@@H](CCC(N)=O)C(=O)NC(C)(C)C(=O)N[C@@H](CC(=O)O)C(=O)N[C@@H](Cc1ccccc1)C(=O)N[C@H](C(=O)N[C@@H](CCC(=O)O)C(=O)N[C@@H](Cc1ccncc1)C(=O)N[C@@H](CCCCNC(=O)COCCOCCNC(=O)COCCOCCNC(=O)CC[C@H](NC(=O)CCCCCCCCCCCCCCCCCCC(=O)O)C(=O)O)C(=O)N[C@@H](CC(C)C)C(=O)N[C@@H](CCC(=O)O)C(=O)NCC(=O)NCC(=O)N1CCC[C@H]1C(=O)N[C@@H](CO)C(=O)N[C@@H](CO)C(=O)NCC(=O)N[C@@H](C)C(=O)N1CCC[C@H]1C(=O)N1CCC[C@H]1C(=O)N1CCC[C@H]1C(=O)N[C@@H](CO)C(N)=O)C(C)C)[C@@H](C)CC [Example 119] (H-Y[Aib]EGT[αMePhe(2-F)]ISDYSILLDKIHQ[Aib]DFVE[4Pal]K([AEEA-AEEA-γGlu-C20 diacid])LEGGPSSGAPPPS-NH2) | 723 | 0.129
CC[C@H](C)[C@H](NC(=O)[C@H](CCCN)NC(=O)[C@H](CC(=O)O)NC(=O)[C@H](CC(C)C)NC(=O)[C@](C)(CC(C)C)NC(=O)[C@@H](NC(=O)[C@H](CO)NC(=O)[C@H](Cc1ccc(O)cc1)NC(=O)[C@H](CC(=O)O)NC(=O)[C@H](CO)NC(=O)[C@@H](NC(=O)[C@H](Cc1ccccc1)NC(=O)[C@@H](NC(=O)CNC(=O)[C@H](CCC(=O)O)NC(=O)C(C)(C)NC(=O)[C@@H](N)Cc1ccc(O)cc1)[C@@H](C)O)[C@@H](C)CC)[C@@H](C)CC)C(=O)N[C@@H](Cc1c[nH]cn1)C(=O)N[C@@H](CCC(N)=O)C(=O)NC(C)(C)C(=O)N[C@@H](CCC(=O)O)C(=O)N[C@@H](Cc1ccccc1)C(=O)N[C@H](C(=O)N[C@@H](CCC(=O)O)C(=O)N[C@@H](Cc1ccncc1)C(=O)N[C@@H](CCCCNC(=O)COCCOCCNC(=O)COCCOCCNC(=O)CC[C@H](NC(=O)CCCCCCCCCCCCCCCCCCC(=O)O)C(=O)O)C(=O)N[C@@H](CC(C)C)C(=O)N[C@@H](CCC(=O)O)C(=O)N[C@@H](C)C(=O)NCC(=O)N1CCC[C@H]1C(=O)N[C@@H](CO)C(=O)N[C@@H](CO)C(=O)NCC(=O)N[C@@H](C)C(=O)N1CCC[C@H]1C(=O)N1CCC[C@H]1C(=O)N1CCC[C@H]1C(=O)N[C@@H](CO)C(N)=O)C(C)C [Example 122] (H-Y[Aib]EGTFISDYSI[αMeL]LD[Orn]IHQ[Aib]EFVE[4Pal]K([AEEA-AEEA-γGlu-C20 diacid])LEAGPSSGAPPPS-NH2) | > 913 | 0.0311
CC[C@H](C)[C@H](NC(=O)[C@H](Cc1ccccc1)NC(=O)[C@@H](NC(=O)CNC(=O)[C@H](CCC(=O)O)NC(=O)C(C)(C)NC(=O)[C@@H](N)Cc1ccc(O)cc1)[C@@H](C)O)C(=O)N[C@@H](CO)C(=O)N[C@@H](CC(=O)O)C(=O)N[C@@H](Cc1ccc(O)cc1)C(=O)N[C@@H](CO)C(=O)N[C@H](C(=O)N[C@@](C)(CC(C)C)C(=O)N[C@@H](CC(C)C)C(=O)N[C@@H](CC(=O)O)C(=O)N[C@@H](CCCCN)C(=O)N[C@@H](CCCCNC(=O)COCCOCCNC(=O)COCCOCCNC(=O)CC[C@H](NC(=O)CCCCCCCCCCCCCCCCCCC(=O)O)C(=O)O)C(=O)N[C@@H](Cc1c[nH]cn1)C(=O)N[C@@H](CCC(N)=O)C(=O)NC(C)(C)C(=O)N[C@@H](CC(=O)O)C(=O)N[C@@H](Cc1ccccc1)C(=O)N[C@H](C(=O)N[C@@H](CCC(=O)O)C(=O)N[C@@H](Cc1ccncc1)C(=O)N[C@@H](CC(C)C)C(=O)N[C@@H](CC(C)C)C(=O)N[C@@H](C)C(=O)N[C@@H](CCC(N)=O)C(=O)NCC(=O)N1CCC[C@H]1C(=O)N[C@@H](CO)C(=O)N[C@@H](CO)C(=O)NCC(=O)N[C@@H](C)C(=O)N1CCC[C@H]1C(=O)N1CCC[C@H]1C(=O)N1CCC[C@H]1C(=O)N[C@@H](CO)C(N)=O)C(C)C)[C@@H](C)CC [Example 79] (H-Y[Aib]EGTFISDYSI[αMeL]LDKK([AEEA-AEEA-γGlu-C20 diacid])HQ[Aib]DFVE[4Pal]LLAQGPSSGAPPPS-NH2) | 486 | 0.0229
